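Interpolation was linear, between the two tested concentrations surrounding the appropriate level; five concentrations were tested over 48 hours in 96-well plates. Here, GI50 denotes the concentration required for 50% inhibition of growth. Definition used: TGI = concentration required for complete inhibition of growth.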
Legend:
Assay in all cases: DTP human tumour cell line panel, 48 h
[1] = test system: 786-0 renal
[2] = test system: A498 renal
[3] = test system: A549 NSCLC
[4] = test system: ACHN renal
[5] = test system: BT-549 breast
[6] = test system: CAKI-1 renal
[7] = test system: CCRF-CEM leukemia
[8] = test system: COLO 205 colon
[9] = test system: DU-145 prostate
[10] = test system: EKVX NSCLC
[11] = test system: HCC-2998 colon
[12] = test system: HCT-116 colon
[13] = test system: HCT-15 colon
[14] = test system: HL-60(TB) leukemia
[15] = test system: HOP-62 NSCLC
[16] = test system: HOP-92 NSCLC
[17] = test system: HS 578T breast
[18] = test system: HT29 colon
[19] = test system: IGROV1 ovarian
[20] = test system: K-562 leukemia
[21] = test system: KM12 colon
[22] = test system: LOX IMVI melanoma
[23] = test system: M14 melanoma
[24] = test system: MALME-3M melanoma
[25] = test system: MCF7 breast
[26] = test system: MDA-MB-231 breast
[27] = test system: MOLT-4 leukemia
[28] = test system: NCI-H226 lung
[29] = test system: NCI-H23 lung
[30] = test system: NCI-H460 lung
[31] = test system: NCI-H522 lung
[32] = test system: NCI/ADR-RES ovarian
[33] = test system: OVCAR-3 ovarian
[34] = test system: OVCAR-4 ovarian
[35] = test system: OVCAR-5 ovarian
[36] = test system: OVCAR-8 ovarian
[37] = test system: PC-3 prostate
[38] = test system: RPMI-8226 leukemia
[39] = test system: RXF 393 renal
[40] = test system: SF-268 CNS
[41] = test system: SF-295 CNS
[42] = test system: SK-MEL-2 melanoma
[43] = test system: SK-MEL-28 melanoma
[44] = test system: SK-MEL-5 melanoma
[45] = test system: SK-OV-3 ovarian
[46] = test system: SN12C renal
[47] = test system: SNB-19 CNS
[48] = test system: SNB-75 CNS
[49] = test system: SR leukemia
[50] = test system: SW-620 colon
[51] = test system: T-47D breast
[52] = test system: TK-10 renal
[53] = test system: U251 CNS
[54] = test system: UACC-62 melanoma
[55] = test system: UO-31 renal

For COc1ccc2c(c1)/C(=C\c1c(C)nc3sccn13)C(=O)N2, the TGI [1] was > 100 µM, the GI50 [2] was < 0.01 µM and the TGI [2] was 0.0646 µM. For the same compound, the GI50 [3] was 0.155 µM, the TGI [3] was > 100 µM and the TGI [4] was 69.4 µM. The TGI [5] was > 82.9 µM, the GI50 [6] was < 0.0485 µM and the TGI [6] was > 100 µM. The GI50 [7] was 0.0979 µM, the TGI [7] was > 100 µM and the GI50 [8] was < 0.0506 µM. For the same compound, the GI50 [9] was 0.55 µM, the TGI [9] was > 100 µM and the GI50 [10] was 2.12 µM. For the same compound, the TGI [10] was > 100 µM, the GI50 [11] was 0.0392 µM and the TGI [11] was 8.21 µM. For the same compound, the TGI [12] was > 31.8 µM, the GI50 [13] was < 0.0468 µM and the TGI [13] was > 27.1 µM. For the same compound, the GI50 [14] was 0.136 µM, the TGI [14] was 0.534 µM and the TGI [15] was > 100 µM. The GI50 [16] was 0.83 µM, the TGI [16] was > 100 µM and the GI50 [17] was 0.224 µM. The TGI [17] was 15.2 µM, the TGI [18] was > 100 µM and the GI50 [19] was < 0.0252 µM. For the same compound, the TGI [19] was 3.69 µM, the GI50 [20] was 0.0956 µM and the TGI [20] was > 100 µM. The GI50 [21] was < 0.0402 µM, the TGI [21] was 25.5 µM and the GI50 [22] was < 0.01 µM. The TGI [22] was > 100 µM, the GI50 [23] was < 0.0495 µM and the TGI [23] was > 100 µM. The GI50 [24] was < 0.0478 µM, the TGI [24] was 97.4 µM and the TGI [25] was > 100 µM. The GI50 [26] was < 0.01 µM, the TGI [26] was 26.2 µM and the GI50 [27] was < 0.0462 µM. For the same compound, the GI50 [28] was 6.55 µM, the TGI [28] was 74.4 µM and the GI50 [29] was 0.382 µM. The TGI [29] was > 100 µM, the TGI [30] was > 100 µM and the GI50 [31] was < 0.01 µM. For the same compound, the TGI [32] was > 42.2 µM, the GI50 [33] was < 0.01 µM and the GI50 [34] was 4.01 µM. For the same compound, the TGI [34] was > 100 µM, the GI50 [35] was 7.81 µM and the TGI [35] was > 100 µM. For the same compound, the GI50 [36] was 0.306 µM, the GI50 [37] was 0.179 µM and the TGI [37] was > 100 µM. For the same compound, the TGI [38] was > 26.4 µM, the GI50 [39] was 0.722 µM and the TGI [39] was > 90.4 µM. For the same compound, the GI50 [40] was 15.7 µM, the TGI [40] was > 100 µM and the GI50 [41] was < 0.0466 µM. The GI50 [42] was 0.162 µM, the TGI [42] was > 83.7 µM and the GI50 [43] was 66.3 µM. The TGI [43] was > 100 µM, the GI50 [44] was < 0.0474 µM and the TGI [44] was 3.39 µM. For the same compound, the TGI [45] was > 38.3 µM, the GI50 [46] was 0.0889 µM and the TGI [46] was > 91.7 µM. For the same compound, the GI50 [47] was 0.525 µM, the TGI [47] was > 100 µM and the GI50 [48] was 0.372 µM. The TGI [48] was > 100 µM, the GI50 [49] was 0.0309 µM and the TGI [49] was 0.38 µM. For the same compound, the GI50 [50] was < 0.0476 µM, the TGI [50] was > 100 µM and the GI50 [51] was 1.98 µM. For the same compound, the TGI [51] was > 67.2 µM, the TGI [52] was > 63.5 µM and the TGI [53] was > 100 µM. For the same compound, the GI50 [54] was < 0.0356 µM, the TGI [54] was 3.35 µM and the GI50 [55] was 0.0147 µM. For the same compound, the TGI [55] was 20.3 µM.
